Reference: patent publication US8178545B2, “Dual small molecule inhibitors of cancer and angiogenesis” (University of Virginia Patent Foundation, priority 2004, dated 2012)
“Also recorded” adds a separate entry of the source. Where two headings read alike, the source gives them in different places. One block for each compound: values may come before it.

How the values were obtained:
HCT-116 [1] = conditions: NCI data; cited from earlier work
HCC-2998 [2] = conditions: NCI data; cited from earlier work
COLO205 [3] = conditions: NCI data; cited from earlier work
HT29 [4] = conditions: NCI data; cited from earlier work
KM12 [5] = conditions: NCI data; cited from earlier work
HCT-15 [6] = conditions: NCI data; cited from earlier work
SW-620 [7] = conditions: NCI data; cited from earlier work
tubulin = assay: Microtubule disruption / tubulin depolymerization; assay type: cell-based; conditions: for Microtubule activity (% depolymerization): at 5 μM
[8] = tested on: NCI/ADR cells (Pgp expressing); assay: Proliferation of Pgp expressing cell line; assay type: cell-based; conditions: for IC50: Homo sapiens, NCI/ADR-RES; for Rr value: relative resistance, NCI/ADR vs MDA-MB-435
Description: Relative resistance (Rr) values can be calculated by dividing the IC50 of the […] cell line.

[9] = tested on: Human Umbilical Vein Endothelial Cells (HUVEC); assay: Endothelial cell proliferation; assay type: cell-based; conditions: triplicate, ± SEM
Description: (§1) Without wishing to be bound by any particular theory, strategies and experiments are described herein pertaining to developing an anti-cancer strategy of simultaneously inhibiting endothelial and cancer cells. […] The taxanes, taxol and docetaxel, vinblastine, vincristine and 2-methoxyestradiol all have anti-angiogenic activity in vivo. […] SC-2-71's ability to inhibit angiogenesis in an in vivo model was then examined.

[10] = tested on: Human Microvessel Endothelial Cells (HMEC); assay: Endothelial cell proliferation; assay type: cell-based; conditions: triplicate, ± SEM
Description: as §1

MDA-MB-435 cells [11] = assay: Cell cycle progression by flow cytometry; assay type: cell-based; conditions: 3 μM for 18 h, Krishan's reagent
Protocol: The effects of SC-2-71 on cell cycle progression were determined using flow cytometry techniques. MDA-MB-435 cells were treated with 3 μM SC-2-71 for 18 h, stained with Krishan's reagent and DNA content analyzed.

NCI 60 human cell lines = NCI 60 human cell lines (GI50); assay type: cell-based; conditions: several cell lines of the NCI 60 panel
Description: FIG. 1 Depicts the effects of SC-2-71 against the NCI 60 human cell lines (GI50).
Several interesting findings are evident.

HCC-2998 [12] = assay: NCI anticancer drug screen, proliferation (GI50); assay type: cell-based; conditions: Homo sapiens
Protocol: (§2) SC-2-71 was evaluated against human cultured cell lines in the NCI Anticancer Drug Development Program. […] This includes potent inhibition of colon cancer cells from primary tumors, distal metastasis and ascites fluid.

KM12 [13] = assay: NCI anticancer drug screen, proliferation (GI50); assay type: cell-based; conditions: Homo sapiens
Protocol: as §2

COLO205 [14] = assay: NCI anticancer drug screen, proliferation (GI50); assay type: cell-based; conditions: Homo sapiens, COLO 205
Protocol: as §2

HCT-116 [15] = assay: NCI anticancer drug screen, proliferation (GI50); assay type: cell-based; conditions: Homo sapiens, grade III tumor cells (HCT116)
Protocol: as §2

HT29 [16] = assay: NCI anticancer drug screen, proliferation (GI50); assay type: cell-based; conditions: Homo sapiens, HT-29
Protocol: as §2

SW-620 [17] = assay: NCI anticancer drug screen, proliferation (GI50); assay type: cell-based; conditions: Homo sapiens
Protocol: as §2

HCT-15 [18] = assay: NCI anticancer drug screen, proliferation (GI50); assay type: cell-based; conditions: Homo sapiens
Protocol: as §2

MDA-MB-435 cells [19] = assay: Anti-proliferative activity, SRB assay; assay type: cell-based; conditions: Homo sapiens
[20] = tested on: blood vessels on the chick chorioallantoic membrane; assay: Chick chorioallantoic membrane (CAM) model of blood vessel growth; assay type: in vivo; conditions: 100 μM, compared to control
Protocol: SC-2-71 (100 μM) inhibited a translational model of blood vessel growth in vivo (CAM, FIG. 8, panel B and C) as compared to control (FIG. 8, panel A). This strongly establishes that SC-2-71 has anti-angiogenic activity. Further it raises the question as to the expression level of βIII tubulin in HMECs.

HeLa cells = assay: Mitotic spindle formation; assay type: cell-based; conditions: low micromolar concentrations
A-10 cells = assay: Cell based phenotypic screen of microtubule disruption
Description: FIG. 2 Depicts the microtubule depolymerizing effects of SC-2-71 in A-10 cells.
The microtubule disrupting effects of SC-2-71 were detected in a cell based phenotypic screen (FIG. 2). […] This effect is consistent with the effects observed from other microtubule depolymerizers. […] This is also a hallmark of microtubule disrupting compounds. Depolymerization of interphase microtubules is a classic response of cells to relatively high concentrations of microtubule disruptors such as the vinca alkaloids.

[21] = tested on: NCI/ADR cells (Pgp expressing); conditions: NCI/ADR (Pgp expressing) and MDA-MB-435 (Pgp deficient); Tinley et al. 2003; cited from earlier work

SMILES: O=c1[nH]cc(F)c(=O)[nH]1 [Compound 5FU, 5-Fluorouracil]
GI50 (HCT-116 [1]): 4000 nM | GI50 (HCC-2998 [2]): 1400 nM | GI50 (COLO205 [3]): 7200 nM | GI50 (HT29 [4]): 6700 nM | GI50 (KM12 [5]): 11100 nM | GI50 (HCT-15 [6]): 5800 nM | GI50 (SW-620 [7]): 26200 nM

SMILES: CC[C@]1(O)C[C@H]2CN(CCc3c([nH]c4ccccc34)[C@@](C(=O)OC)(c3cc4c(cc3OC)N(C=O)[C@H]3[C@@](O)(C(=O)OC)[C@H](OC(C)=O)[C@]5(CC)C=CCN6CC[C@]43[C@@H]65)C2)C1 [Vincristine]
GI50 (HCT-116 [1]): 120 nM | GI50 (HCC-2998 [2]): 110 nM | GI50 (COLO205 [3]): 120 nM | GI50 (HT29 [4]): 110 nM | GI50 (KM12 [5]): 120 nM | GI50 (HCT-15 [6]): 140 nM | GI50 (SW-620 [7]): 110 nM

SMILES: CC(=O)O[C@H]1C(=O)[C@@]2(C)[C@H]([C@H](OC(=O)c3ccccc3)[C@]3(O)C[C@H](OC(=O)[C@H](O)[C@@H](NC(=O)c4ccccc4)c4ccccc4)C(C)=C1C3(C)C)[C@]1(OC(C)=O)CO[C@@H]1C[C@@H]2O [taxol]
Rr value [21]: 827

Now from value to compound, other results behind:

IC50 (MDA-MB-435 cells [19]): 0.61 ± 0.1 µM
SMILES: O=C1NC(c2ccc(-c3ccccc3)cc2)Nc2ccccc21 (stereo not drawn) [SC-2-71]
Microtubule activity (% depolymerization) (tubulin): 50% | IC50 [8]: 1.8 ± 0.11 µM | transport by Pgp ([8]; inferred from Rr values): poor substrate for transport by Pgp | Rr value [8]: 2.95 | IC50 ([9]; Homo sapiens, HUVEC): 1600 nM | IC50 [9]: 1660 ± 500 nM | IC50 [10]: 20000 nM | cell cycle progression (DNA content) (MDA-MB-435 cells [11]): distinct mitotic accumulation | GI50 (NCI 60 human cell lines): > 100000 nM | GI50 (HCC-2998 [12]; HCC 2998, colon HCC2998, read-out: lowest GI50): 68 nM | GI50 (HCC-2998 [12]; HCC-2998, read-out: GI50): 68 nM | GI50 (KM12 [13]): 2000 nM | GI50 (COLO205 [14]): 900 nM | GI50 (HCT-116 [15]): 500 nM | GI50 (HT29 [16]): 1000 nM | GI50 (SW-620 [17]): 4000 nM | GI50 (HCT-15 [18]): 400 nM | blood vessel growth (CAM) [20]: inhibited | mitotic spindles and mitotic accumulation (HeLa cells): formation of abnormal mitotic spindles and mitotic accumulation | micronucleation (A-10 cells): extensive micronucleation | effect on cellular microtubules (A-10 cells; interphase microtubule network): concentration dependent loss of cellular microtubules

IC50 (MDA-MB-435 cells [19]): 0.9 ± 0.3 µM
SMILES: O=C(c1ccccc1)c1ccc(C2NC(=O)c3ccccc3N2)cc1 (stereo not drawn) [SC-4-283]
inhibition of tubulin polymerization (tubulin): improved inhibitory activity in relation to SC-2-71; also recorded: potent inhibitor of tubulin polymerization | Microtubule activity (% depolymerization) (tubulin): 50% at 5 μM

IC50 (MDA-MB-435 cells [19]): 0.26 ± 0.02 µM
SMILES: O=C(c1ccccc1)c1ccc(C2NC(=O)c3ccccc3N2)cc1Cl (stereo not drawn) [SC-5-87]
Microtubule activity (% depolymerization) (tubulin): 90% at 5 μM | IC50 [8]: 0.76 ± 0.01 µM | Rr value [8]: 2.9

IC50 (MDA-MB-435 cells [19]): 0.6 ± 0.1 µM
SMILES: Cc1ccccc1-c1ccc(C2NC(=O)c3ccccc3N2)cc1 (stereo not drawn) [SC-5-121]
Microtubule activity (% depolymerization) (tubulin): 90% at 5 μM | IC50 [8]: 0.88 ± 0.03 µM | Rr value [8]: 1.2
